Test results: patent US20230050965A1, “SSTR5 ANTAGONISTS” (Kallyope, Inc., priority 2019, published 2023)

What was measured:
[1] = Oral bioavailability after oral dosing in rat; conditions: in vivo, Sprague Dawley rats, IV 1 mg/kg, PO 5 mg/kg, read-out: F % (oral bioavailability)
Experimental: Example A-2: Oral Bioavailability of the Compounds after Oral Dosing in Rat
Oral bioavailability of the compounds was determined in Sprague Dawley rats. The table below summarizes the results. Each compound was dosed intravenously (IV) at 1 mg/kg and orally (PO) 5 mg/kg using the respective vehicles listed below. The compounds display low (<10%) oral bioavailability (F %).

human SSTR5 = target: T1, human SSTR5 (Homo sapiens, UniProt P35346); experiment: Inositol phosphate (IP1) accumulation assay, antagonist mode; format: cell-based; conditions: CHO-K1 cells stably co-expressing human SSTR5 with Gqi5; pre-incubation with antagonist, then SST28 agonist; IP1 HTRF readout
T1 construct: expressed in transfected cells
Description: Inositol Phosphate Accumulation Assay
CHO-K1 cells stably co-expressing human SSTR5 with Gqi5 were developed using Jump-In technology from Thermo-Fisher. Gqi5 is the mouse G alpha q protein, that was modified to interact with Gi-coupled GPCRs as described previously (Coward, P.; Chan, S. D.; Wada, H. G.; Humphries, G. M.; Conklin, B. R. Chimeric G proteins Allow a High-Throughput Signaling Assay of Gi-Coupled Receptors. Anal Biochem. 1999, 270(2), 242-248).
Co-expression of Gqi5 with SSTR5 allowed monitoring of SSTR5 activity by following IP1 accumulation. The assay was performed in a 384-well plate format using the IP1 assay kit from Cis-Bio in an antagonist mode, i.e., pre-incubation with antagonist following by receptor activation by agonist at a concentration generating 90% of full activation. Frozen cells expressing human SSTR5 were thawed, washed, and then plated in DMEM supplemented with 10% FBS and non-essential amino acids. 40 μL of 2.5×10^5 cells/mL were plated on a Poly D-Lysine coated 384-well white plate. The cells were then incubated for 16 hr. at 37° C./5% CO2. After 16 hour the medium was removed, and 10 μL of stimulation buffer was added to the cells. Test compounds were dissolved in DMSO at concentrations 2000-fold that of the final assay concentrations. 7.5 nL compound solutions were transferred to the cell plates using a Labcyte Echo® acoustic liquid handler. The plates were then incubated for 15 minutes at 37° C./5% CO2. After the first incubation, 5 μL of 30 nM SST28 were added to the cells, and the cells were incubated for 90 minutes at 37° C./5% CO2. 5 μL of detection buffer (prepared as described in the IP-1 kit) was added to each well, and the plates were incubated at RT for 1 hour.
TR-FRET was measured using a ClarioSTAR plate reader, calculating the ratio between emissions at 665 nm and 620 nm (HTRF ratio). The HTRF ratio for positive (Max) and negative (Min) controls were used to normalize HTRF data and generate values for % inhibition. IC50 and maximal inhibition values were determined using a standard 4-parameter fit.

T1 sequence (P35346 whole entry): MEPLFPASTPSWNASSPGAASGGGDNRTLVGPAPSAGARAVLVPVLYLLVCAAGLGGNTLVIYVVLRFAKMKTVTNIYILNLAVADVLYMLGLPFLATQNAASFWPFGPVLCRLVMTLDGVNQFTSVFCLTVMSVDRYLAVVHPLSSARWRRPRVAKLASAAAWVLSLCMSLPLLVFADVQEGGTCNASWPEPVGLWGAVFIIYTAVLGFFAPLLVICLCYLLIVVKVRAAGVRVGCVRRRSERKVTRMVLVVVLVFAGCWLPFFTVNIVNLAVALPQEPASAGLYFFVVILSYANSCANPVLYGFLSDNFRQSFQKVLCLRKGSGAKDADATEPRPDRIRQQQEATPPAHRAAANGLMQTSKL

Compound | bioavailability [1] [%] | IC50 (human SSTR5) [nM]
CCOc1cc(-c2ccc(F)cc2)c(C2CC2)cc1CN1CCC2(CC1)CN(c1ccc(P(=O)(O)O)cc1)C(=O)O2 [Compound 1, (4-(8-((2-cyclopropyl-5-ethoxy-4′-fluoro-[1,1′-biphenyl]-4-yl)methyl)-2-oxo-1-oxa-3,8-diazaspiro[4.5]decan-3-yl)phenyl)phosphonic acid] | 0.9 | ≤ 100
CCOc1cc(-c2ccc(F)cc2)c(C2CC2)cc1CN1CCC2(CC1)CN(c1ccc(P(C)(=O)O)cc1)C(=O)O2 [Compound 2, (4-(8-((2-cyclopropyl-5-ethoxy-4′-fluoro-[1,1′-biphenyl]-4-yl)methyl)-2-oxo-1-oxa-3,8-diazaspiro[4.5]decan-3-yl)phenyl)(methyl)phosphinic acid] | 8.7 | ≤ 100
CCOc1cc(-c2ccc(F)cc2)c(C2CC2)cc1CN1CCC2(CC1)CN(c1ccc([PH](=O)O)cc1)C(=O)O2 [Compound 3, (4-(8-((2-cyclopropyl-5-ethoxy-4′-fluoro-[1,1′-biphenyl]-4-yl)methyl)-2-oxo-1-oxa-3,8-diazaspiro[4.5]decan-3-yl)phenyl)phosphinic acid] | 1.9 | ≤ 100
CCOc1cc(-c2ccc(F)cn2)c(C2CC2)cc1CN1CCC2(CC1)CN(c1ccc(P(=O)(O)O)cc1)C(=O)O2 [Compound 9, (4-(8-(5-cyclopropyl-2-ethoxy-4-(5-fluoropyridin-2-yl)benzyl)-2-oxo-1-oxa-3,8-diazaspiro[4.5]decan-3-yl)phenyl)phosphonic acid] | 0.2 | ≤ 100
CCOc1cc(-c2nc(C)no2)c(C2CC2)cc1CN1CCC2(CC1)CN(c1ccc(P(=O)(O)O)cc1)C(=O)N2 [Compound 27, (4-(8-(5-cyclopropyl-2-ethoxy-4-(3-methyl-1,2,4-oxadiazol-5-yl)benzyl)-2-oxo-1,3,8-triazaspiro[4.5]decan-3-yl)phenyl)phosphonic acid] | – | ≤ 100
CCOc1cc(-c2ccc(F)cc2)c(C2CC2)cc1CN1CCC2(CC1)CN(c1ccc(P(C)(=O)O)cc1)C(=O)N2 [Compound 28, (4-(8-((2-cyclopropyl-5-ethoxy-4′-fluoro-[1,1′-biphenyl]-4-yl)methyl)-2-oxo-1,3,8-triazaspiro[4.5]decan-3-yl)phenyl)(methyl)phosphinic acid] | – | ≤ 100
CCOc1cc(-c2ccc(F)cc2)c(C2CC2)cc1CN1CCC2(CC1)CC(=O)N(c1ccc(P(=O)(O)O)cc1)C2 [Compound 29, (4-(8-((2-cyclopropyl-5-ethoxy-4′-fluoro-[1,1′-biphenyl]-4-yl)methyl)-3-oxo-2,8-diazaspiro[4.5]decan-2-yl)phenyl)phosphonic acid] | – | ≤ 100
CCOc1cc(-c2ccc(F)cc2)c(C2CC2)cc1CN1CCC2(CC1)CN(c1ccc(CP(=O)(O)O)cc1)C(=O)O2 [Compound 30, (4-(8-((2-cyclopropyl-5-ethoxy-4'-fluoro-[1,1'-biphenyl]-4-yl)methyl)-2-oxo-1-oxa-3,8-diazaspiro[4.5]decan-3-yl)benzyl)phosphonic acid] | – | ≤ 100
CCOc1cc(S(C)(=O)=O)c(C2CC2)cc1CN1CCC2(CC1)CN(c1cccc(CCCCNC(=O)NC(CO)(CO)CO)c1)C(=O)N2 [Compound 31, 1-(4-(3-(8-(5-cyclopropyl-2-ethoxy-4-(methylsulfonyl)benzyl)-2-oxo-1,3,8-triazaspiro[4.5]decan-3-yl)phenyl)butyl)-3-(1,3-dihydroxy-2-(hydroxymethyl)propan-2-yl)urea] | – | 100 to 1000
CCOc1cc(-c2ccc(F)cc2)c(C2CC2)cc1CN1CCC2(CC1)CN(c1ccc(CNC[C@H](O)[C@@H](O)[C@H](O)[C@H](O)CO)cc1)C(=O)O2 [Compound 32, 8-((2-cyclopropyl-5-ethoxy-4'-fluoro-[1,1'-biphenyl]-4-yl)methyl)-3-(4-((((2S,3R,4R,5R)-2,3,4,5,6-pentahydroxyhexyl)amino)methyl)phenyl)-1-oxa-3,8-diazaspiro [4.5]decan-2-one] | – | ≤ 100
CCOc1cc(-c2ccc(F)cn2)c(C2CCC2)cc1CN1CCC2(CC1)CN(c1ccc(P(=O)(O)O)cc1)C(=O)O2 [Compound 35, (4-(8-(5-cyclobulyl-2-ethoxy-4-(5-fluoropyridin-2-yl)benzyl)-2-oxo-1-oxa-3,8-diazaspiro[4.5]decan-3-yl)phenyl)phosphonic acid] | – | ≤ 100
CCOc1cc(-c2ccc(F)cc2)c(C2CCC2)cc1CN1CCC2(CC1)CN(c1ccc(P(=O)(O)O)cc1)C(=O)O2 [Compound 36, (4-(8-((2-cyclobutyl-5-ethoxy-4'-fluoro-[1,1'-biphenyl]-4-yl)methyl)-2-oxo-1-oxa-3,8-diazaspiro[4.5]decan-3-yl)phenyl)phosphonic acid] | – | ≤ 100
CCOc1cc(-c2ccc(F)cc2)c(C(C)C)cc1CN1CCC2(CC1)CN(c1ccc(P(=O)(O)O)cc1)C(=O)O2 [Compound 37, (4-(8-((5-ethoxy-4'-fluoro-2-isopropyl-[1,1'-biphenyl]-4-yl)methyl)-2-oxo-1-oxa-3,8-diazaspiro[4.5]decan-3-yl)phenyl)phosphonic acid] | – | ≤ 100
CCOc1cc(-c2ccc(F)cc2)c(C2CC2)cc1CN1CCN(S(=O)(=O)Cc2ccc(P(=O)(O)O)cc2)CC1 [Compound 38, (4-(((4-((2-cyclopropyl-5-ethoxy-4′-fluoro-[1,1′-biphenyl]-4-yl)methyl)piperazin-1-yl)sulfonyl)methyl)phenyl)phosphonic acid] | – | ≤ 100
CCOc1cc(-c2ccc(F)cc2)c(C2CC2)cc1CN1CCN(S(=O)(=O)Cc2ccc(P(=O)(O)OCC)cc2)CC1 [Compound 39, ethyl hydrogen (4-(((4-((2-cyclopropyl-5-ethoxy-4′-fluoro-[1,1′-biphenyl]-4-yl)methyl)piperazin-1-yl)sulfonyl)methyl)phenyl)phosphonate] | – | ≤ 100
CCOc1cc(-c2ccc(F)cc2)c(C2CC2)cc1CN1CCN(C(=O)Cc2ccc(P(=O)(O)OCC)cc2)CC1 [Compound 40, ethyl hydrogen (4-(2-(4-((2-cyclopropyl-5-ethoxy-4′-fluoro-[1,1′-biphenyl]-4-yl)methyl)piperazin-1-yl)-2-oxoethyl)phenyl)phosphonate] | – | ≤ 100
CCOc1cc(-c2ccc(F)cc2)c(C2CC2)cc1CN1CCN(C(=O)Cc2ccc(P(=O)(O)O)cc2)CC1 [Compound 41, (4-(2-(4-((2-cyclopropyl-5-ethoxy-4′-fluoro-[1,1′-biphenyl]-4-yl)methyl)piperazin-1-yl)-2-oxoethyl)phenyl)phosphonic acid] | – | ≤ 100
CCOc1cc(C(=O)OC)c(C2CC2)cc1CN1CCN(C(=O)Oc2ccc(CNC[C@H](O)[C@@H](O)[C@H](O)[C@H](O)CO)cc2)CC1 [Compound 42, 4-((((2S,3R,4R,5R)-2,3,4,5,6-pentahydroxyhexyl)amino)methyl)phenyl 4-(5-cyclopropyl-2-ethoxy-4-(methoxycarbonyl)benzyl)piperazine-1-carboxylate] | – | > 5000
